Measured values taken from US8058243B2, “Method for treating a brain cancer with ifenprodil” (HSC Research and Development Limited Partnership, priority 2006, dated 2011).
Counter-ions that a name gives are not always drawn. Like-named read-outs stand apart in the source and are kept apart here.

Test system: murine neural precursor cells (neurosphere cultures)
Assay: HTS of LOPAC library against secondary neurosphere cultures, MTT proliferation assay at 3 μM, day 7 (z score, P value)
Type: cell-based, mouse
[1] = yes/no: significantly inhibited neurosphere proliferation in primary screen
[2] = LOPAC library screen, 3 μM, MTT, neurosphere cultures
[3] = LOPAC primary screen, neurosphere MTT proliferation, 3 μM, day 7
[4] = LOPAC library screen at 3 μM, secondary neurosphere cultures, MTT
[5] = LOPAC library screen, 3 μM, MTT, secondary neurosphere cultures, day 7
[6] = primary LOPAC screen, 3 μM, MTT, neurosphere proliferation
[7] = yes/no: significantly inhibited neurosphere proliferation in the primary screen
[8] = yes = significantly inhibited neurosphere proliferation (P<0.01) in the primary screen

| Structure (SMILES) | Activity [1] | Z Score | Z score [3] | Activity [7] | other results |
| --- | --- | --- | --- | --- | --- |
| NC(=O)C(=O)[O-].[Na+] [Sodium Oxamate] | no |  |  |  | Z Score (168 h, 3 µM): 0.7449; Z score (168 h, 3 µM): 0.745 |
| C[C@H](CCC(=O)NCCS(=O)(=O)O)[C@H]1CC[C@H]2[C@@H]3[C@H](O)C[C@@H]4C[C@H](O)CC[C@]4(C)[C@H]3C[C@H](O)[C@]12C [Sodium Taurocholate] |  | −0.7604 |  |  | Activity: no; Z score: −0.760 |
| Cl.Cl.Cl.NCCCCNCCCN [Spermidine trihydrochloride] | no |  | 1.259 |  | Z Score [2]: 1.259 |
| Cl.Cl.Cl.Cl.NCCCNCCCCNCCCN [Spermine tetrahydrochloride] |  | 0.3942 |  |  | Activity: no; Z score: 0.394 |
| CCCCCCCCCCCCC/C=C/[C@@H](O)[C@@H](N)CO [Sphingosine] | no | 1.404 | 1.404 |  |  |
| O=C(CCCN1CCC2(CC1)C(=O)NCN2c1ccccc1)c1ccc(F)cc1 [Spiperone hydrochloride] | no |  | −0.517 |  | Z Score [4]: −0.5168 |
| CC(=O)S[C@@H]1CC2=CC(=O)CC[C@]2(C)[C@H]2CC[C@@]3(C)[C@@H](CC[C@@]34CCC(=O)O4)[C@H]12 [Spironolactone] |  |  | −0.526 |  | Activity: no; Z Score [4]: −0.5258 |
| O=C1NCN(c2ccccc2)C12CCN(CC1COc3ccccc3O1)CC2 (stereo not drawn) [Spiroxatrine] | no |  | 0.122 |  | Z Score [2]: 0.1219 |
| C[N+](C)(C)CCOC(=O)CCC(=O)OCC[N+](C)(C)C [Succinylcholine chloride] | no | −1.93 | −1.930 |  |  |
| Nc1ccc(S(=O)(=O)Nc2ccnn2-c2ccccc2)cc1 [Sulfaphenazole] | no |  | −1.362 |  | Z Score [5]: −1.362 |
| CC1=C(CC(=O)O)c2cc(F)ccc2/C1=C\c1ccc(S(C)(=O)=O)cc1 [Sulindac sulfone] | no | 0.5924 | 0.592 |  |  |
| CC1=C(CC(=O)O)c2cc(F)ccc2/C1=C\c1ccc([S+](C)[O-])cc1 (stereo not drawn) [Sulindac] |  |  | −0.194 |  | Activity: no; Z Score [4]: −0.1942 |
| Cc1ccc(C(=O)Nc2ccc(S(=O)(=O)[O-])c3cc(S(=O)(=O)[O-])cc(S(=O)(=O)[O-])c23)cc1NC(=O)c1cccc(NC(=O)Nc2cccc(C(=O)Nc3cc(C(=O)Nc4ccc(S(=O)(=O)[O-])c5cc(S(=O)(=O)[O-])cc(S(=O)(=O)[O-])c45)ccc3C)c2)c1.[Na+].[Na+].[Na+].[Na+].[Na+].[Na+] [Suramin hexasodium] |  |  |  | no | Z Score (LOPAC library screen at 3 μM, MTT, secondary neurosphere cultures, screened in singlets): 2.284; Z score [6]: 2.284 |
| COC(=O)c1c(-c2cc(OC)c(OC)c(OC)c2)c2ccnc(OCc3ncccn3)c2c(=O)n1Cc1ccnc(C)c1 [T-0156] |  | 0.07709 |  | no | Z score [6]: 0.077 |
| COC(=O)c1c(-c2cc(OC)c(OC)c(OC)c2)c2ccc(OCc3ccccn3)cc2c(=O)n1-c1ccc(N)cc1 [T-1032] |  | −2.02 |  | no | Z score [6]: −2.020 |
| Clc1cnc(Oc2ccc(Oc3ncc(Cl)cc3Cl)cc2)c(Cl)c1 [TCPOBOP] |  |  | −2.008 |  | Z Score [5]: −2.008; Activity [8]: no |
| CCSC(N)=Nc1ccc(C(F)(F)F)cc1.Cl [TFPI hydrochloride] | no |  | −1.156 |  | Z Score [4]: −1.156 |
| Cl.O=c1[nH]oc2c1CCNC2 [THIP hydrochloride] |  | 0.3613 |  | no | Z score [6]: 0.361 |
| CCN(CC)CCCCCCCCOC(=O)c1cc(OC)c(OC)c(OC)c1.Cl [TMB-8 hydrochloride] |  | 1.707 | 1.707 |  | Activity [8]: no |
| CP(=O)(O)C1=CCNCC1 [TPMPA] |  | 0.8742 |  | no | Z score [6]: 0.874 |
| C/C(=C\c1ccc(C(=O)O)cc1)c1ccc2c(c1)C(C)(C)CCC2(C)C [TTNPB] |  | −2.158 |  | no | Z score [6]: −2.158 |
| CC/C(=C(\c1ccccc1)c1ccc(OCCN(C)C)cc1)c1ccccc1 [Tamoxifen citrate] |  |  | −10.643 |  | Activity: yes; Z Score [5]: −10.64 |
| NCCS(=O)(=O)O [Taurine] |  |  |  | no | Z Score [2]: 0.5328; Z score [6]: 0.533 |
| CC(=O)O[C@H]1C(=O)[C@@]2(C)[C@H]([C@H](OC(=O)c3ccccc3)[C@]3(O)C[C@H](OC(=O)[C@H](O)[C@@H](NC(=O)c4ccccc4)c4ccccc4)C(C)=C1C3(C)C)[C@]1(OC(C)=O)CO[C@@H]1C[C@@H]2O [Taxol] |  |  | −11.274 |  | Z Score [5]: −11.27; Activity [8]: yes |
| Cc1scc2c1N(C(=O)CN1CCN(C)CC1)c1ccccc1NC2=O [Telenzepine dihydrochloride] |  |  |  | no | Z Score (168 h, 3 µM): 0.3813; Z score (168 h, 3 µM): 0.381 |
